Type in all cases: biochemical
Details in all cases: HeLa S3 lysate, sfGFP/mCherry ratio, 2 hrs at 30° C.

For one test, the system named is MYC. Kind of test: In vitro transcription-translation (IVTT) assay, MYC reporter. The procedure, abridged: (§1)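 Reporter: mCherry, P2A, then 3×FLAG-target peptide-sfGFP fusion, IRES-initiated; HeLa S3 lysate IVTT; cpd dilutions 30 μM−0.1 μM half-log in 100% DMSO (dilution-plate conc); DNA added last; 2 h, 30° C; PBS quench.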
The subject of the next test is ALK. Kind of test: In vitro transcription-translation (IVTT) assay, ALK reporter. The source says: (§2) All reporter constructs have been cloned into the pT7CFE1-CHis plasmid (ThermoFisher #88860) using Gibson assembly procedures (NEB #E2611L). The parental pT7CFE1-CHis plasmid contains an EMCV IRES at the 5′UTR for translation initiation, a multiple-cloning site (MCS) for gene insertion, an optional C-terminal His-epitope tag, and polyA sequence in the 3′UTR to regulate mRNA stability. All reporters are designed to be inserted at the MCS to include a red fluorescent protein (mCherry), P2A self-cleaving peptide which releases the preceding mCherry protein product, and a fusion open reading frame containing a 3×FLAG epitope, a peptide sequence of interest (TEST), and green fluorescent protein (sfGFP).
(§3) Construct Plasmid Preparation: All plasmids are isolated from MACH1 cells (ThermoFisher) grown overnight in ampicillin-containing luria broth, and purified using ZymoPure Express Plasmid Midiprep Kit (Zymo Research). Constructs are sequenced verified and diluted to a working concentration of 110 ng/μL.
(§4) HeLa S3 Lysate Preparation: HeLa S3 cell pellets are acquired from Ipracell/Ipratech (Belgium) and shipped as 4 mL frozen cell pellets on dry ice for storage at −80° C. until use. The procedure for lysate preparation is as follows. Prepare 1× Lysis Buffer, cold and stored on ice:
(§5) Each preparation takes 8 cell pellets (4 ml packed volume each, approximately 1.0×10^9 cells per pellet). Thaw cell pellets from −80° C. on ice for 90 mins. Lay pellets horizontally on top of the ice and rotate every 30 mins to ensure even thawing. Once thawed, add 4 mL of cold lysis buffer to each pellet, and using a serological pipet, gently pipet up and down to break up clumps. Incubate resuspended cells in ice for an additional 30 mins (plunged into ice). During 30 min incubation, rinse and RNase-zap (Ambion) glass dounces (use loose pestle “A”), gently dry and place on ice until needed. Prepare RNase-free Eppendorf tubes for spinning and for batch storage. Add batch labels to 1.5-1.7 mL RNase-free microcentrifuge tubes (labeling scheme below). Each batch will have an extra 1.5-1.7 mL RNase-free microcentrifuge tube for 40 μL of lysate, label the top of this tube (labeling scheme below). After 30 min incubation, transfer all 8 mL of cell pellet to dounce. Cell lysis is complete after douncing 100 times. Aliquot cell lysis into 1.5-1.7 mL temporary-microcentrifuge tubes. Place tubes in centrifuge with “fins” out, and spin at 1,200×g for 5 mins. After the first spin use a 1 mL pipet to resuspend each tube and repeat spin. This acts as an additional lysis step, is more vigorous and increases lysate yield. During second spin get liquid N2 and a fresh conical tube on ice. After spin is complete, transfer supernatant (lysate) from microcentrifuge tubes into the 50 mL conical tube and keep on ice. Repeat steps 10-14 for all other cell pellets until completed. Once all cell lysate has been transferred to the 50 mL conical tube pipet to mix so the solution is homogenous. Transfer 1 mL of lysate into batch-labeled microcentrifuge tubes and flash freeze in liquid nitrogen. Be sure to pipet up and down to mix throughout transfer step. Place all tubes in the […] for long-term storage.
(§6) In vitro transcription-translation assay setup: Each assay includes a master mix containing lysate and shared components, a 96-well plate containing compound titrations for testing, a 96-well DNA plate with reporter constructs to be tested, 96-well skirted PCR plates, and 96-well flat-bottom, black, fluorescent assay plates. […]

Another test concerns KRAS G12D. As to the kind of experiment: In vitro transcription-translation (IVTT) assay, KRAS G12D reporter.
From the text: as §2, §3, §4, §5, §6

The test system of the next test is CCND1. As to the kind of experiment: In vitro transcription-translation (IVTT) assay, CCND1 reporter. Put shortly:
as §1

The subject of a further test is MCL-1. As to the kind of experiment: In vitro transcription-translation (IVTT) assay, MCL-1 reporter. Put shortly:
as §1

Where a name gives a salt, the structure may show the parent alone.

For orientation: IC50 means the point on the concentration scale where inhibition reaches its midpoint. For `CCN(CC)CCNC(=O)O[C@@H]1[C@@H](O)CN[C@@H]1Cc1ccc(OC)cc1` [V187384, (2R,3S,4S)-4-hydroxy-2-[(4-methoxyphenyl)methyl]pyrrolidin-3-yl N-[2-(diethylamino)ethyl]carbamate], the values for the 50% inhibitory concentration (IC50) with MYC and with ALK were over 30 µM and 10 to 20 µM, respectively.

With `COc1ccc(C[C@H]2NC[C@H](O)[C@H]2OC(=O)NCCNc2c(NCc3ccccc3)c(=O)c2=O)cc1` [V187519, (2R,3S,4S)-4-hydroxy-2-[(4-methoxyphenyl)methyl]pyrrolidin-3-yl N-(2-{[2-(benzylamino)-3,4-dioxocyclobut-1-en-1-yl]amino}ethyl)carbamate; trifluoroacetic acid], the IC50 in the test on KRAS G12D is over 30 µM. `COc1ccc(C[C@H]2NC[C@H](O)[C@H]2OC(=O)NCc2nn[nH]n2)cc1` [V187534, (2R,3S,4S)-4-hydroxy-2-[(4-methoxyphenyl)methyl]pyrrolidin-3-yl N-(2H-1,2,3,4-tetrazol-5-ylmethyl) carbamate; trifluoroacetic acid]: the half-inhibitory concentration (IC50) in the test on MYC is 10 to 20 µM; with ALK it was under 10 µM. As to `COc1ccc(C[C@H]2NC[C@H](O)[C@H]2OC(=O)Nc2nnc(CN(Cc3ccccc3)Cc3ccccc3)s2)cc1` [V187551, (2R,3S,4S)-4-hydroxy-2-[(4-methoxyphenyl)methyl]pyrrolidin-3-yl N-{5-[(dibenzylamino)methyl]-1,3,4-thiadiazol-2-yl}carbamate], the IC50 in the test with MYC and in the test on KRAS G12D was over 30 µM in each case.

Turning to `COc1ccc(C[C@H]2NC[C@H](O)[C@H]2OC(=O)NCCN)cc1` [V187575, (2R,3S,4S)-4-hydroxy-2-[(4-methoxyphenyl)methyl]pyrrolidin-3-yl N-(2-aminoethyl)carbamate; trifluoroacetic acid], the IC50 in the test with MYC is 20 to 30 µM; in the test on ALK, under 10 µM. Regarding `COc1ccc(C[C@H]2NC[C@H](O)[C@H]2OC(=O)NCCN2CC[C@H](O)C2)cc1` [V187576, (2R,3S,4S)-4-hydroxy-2-[(4-methoxyphenyl)methyl]pyrrolidin-3-yl N-{2-[(3S)-3-hydroxypyrrolidin-1-yl]ethyl}carbamate trifluoroacetic acid salt], the half-inhibitory concentration (IC50) was under 10 µM in the test with MYC and 10 to 20 µM with ALK. For `COc1ccc(C[C@H]2NC[C@H](O)[C@H]2OC(=O)NCCN2CC(O)C2)cc1` [V187579, (2R,3S,4S)-4-hydroxy-2-[(4-methoxyphenyl)methyl]pyrrolidin-3-yl N-[2-(3-hydroxyazetidin-1-yl)ethyl]carbamate; trifluoroacetic acid] the same measures were 10 to 20 µM and 20 to 30 µM. Taken in the same sequence, the figures for `COc1ccc(C[C@H]2NC[C@H](O)[C@H]2OC(=O)NCCN2CC(C)(O)C2)cc1` [V187580, (2R,3S,4S)-4-hydroxy-2-[(4-methoxyphenyl)methyl]pyrrolidin-3-yl N-[2-(3-hydroxy-3-methylazetidin-1-yl)ethyl]carbamate; trifluoroacetic acid] were over 30 µM and 10 to 20 µM. For `COc1ccc(C[C@H]2NC[C@H](O)[C@H]2OC(=O)NCCN2CC(O)(CN)C2)cc1` [V187581, (2R,3S,4S)-4-hydroxy-2-[(4-methoxyphenyl)methyl]pyrrolidin-3-yl N-{2-[3-(aminomethyl)-3-hydroxyazetidin-1-yl]ethyl}carbamate; trifluoroacetic acid], the IC50 in the test with MYC was 20 to 30 µM; in the test with KRAS G12D, over 30 µM. On to `CNC(=O)O[C@@H]1[C@@H](O)CN[C@@H]1Cc1ccc(OC)cc1` [V187583, (2R,3S,4S)-4-hydroxy-2-[(4-methoxyphenyl)methyl]pyrrolidin-3-yl N-methylcarbamate; trifluoroacetic acid], for which the half-maximal inhibitory concentration (IC50) with ALK is under 10 µM. On to `COc1ccc(C[C@H]2NC[C@H](O)[C@H]2OC(=O)NCCCO)cc1` [V187585, (2R,3S,4S)-4-hydroxy-2-[(4-methoxyphenyl)methyl]pyrrolidin-3-yl N-(3-hydroxypropyl)carbamate], for which the IC50 in the test on MYC, with CCND1, in the test with ALK and in the test with MCL-1 was under 10 µM each time. On to `COc1ccc(C[C@H]2NC[C@H](O)[C@H]2OC(=O)NCCN2C[C@@H](NC(C)=O)[C@H](NC(C)=O)C2)cc1` [V187588, (2R,3S,4S)-4-hydroxy-2-[(4-methoxyphenyl)methyl]pyrrolidin-3-yl N-{2-[(3R,4R)-3,4-diacetamidopyrrolidin-1-yl]ethyl}carbamate; trifluoroacetic acid], for which the IC50 with MYC and with ALK was over 30 µM each time.

Turning to `COc1ccc(C[C@H]2NC[C@H](O)[C@H]2OC(=O)NCCOCCN2CCNCC2)cc1` [V187626, (2R,3S,4S)-4-hydroxy-2-[(4-methoxyphenyl)methyl]pyrrolidin-3-yl N-{2-[2-(piperazin-1-yl)ethoxy]ethyl}carbamate; trifluoroacetic acid], the concentration for half-maximal inhibition (IC50) with MYC was over 30 µM; with ALK, 20 to 30 µM. In the case of `COc1ccc(C[C@H]2NC[C@H](O)[C@H]2OC(=O)NCCNCCn2ccnc2)cc1` [V187637, (2R,3S,4S)-4-hydroxy-2-[(4-methoxyphenyl)methyl]pyrrolidin-3-yl N-(2-{[2-(imidazol-1-yl)ethyl]amino}ethyl)carbamate], the IC50 in the test with MYC lay in the range of 10 to 20 µM; in the test on KRAS G12D, 20 to 30 µM. Turning to `COc1ccc(C[C@H]2NC[C@H](O)[C@H]2OC(=O)NCCN2CCC3(CCC3)C2)cc1` [V187641, (2R,3S,4S)-4-hydroxy-2-[(4-methoxyphenyl)methyl]pyrrolidin-3-yl N-(2-{6-azaspiro[3.4]octan-6-yl}ethyl)carbamate], the IC50 with ALK fell in the range of 10 to 20 µM.

Take `COc1ccc(C[C@H]2NC[C@H](O)[C@H]2OC(=O)NCc2cn(-c3cc4ccc(O)cc4oc3=O)nn2)cc1` [V187692, (2R,3S,4S)-4-hydroxy-2-[(4-methoxyphenyl)methyl]pyrrolidin-3-yl N-{[1-(7-hydroxy-2-oxochromen-3-yl)-1,2,3-triazol-4-yl]methyl}carbamate; trifluoroacetic acid]: the 50% inhibitory concentration (IC50) in the test on MYC and in the test with ALK was over 30 µM throughout.

`COc1ccc(C[C@H]2NC[C@H](O)[C@H]2OC(=O)Nc2nccs2)cc1` [V187752, (2R,3S,4S)-4-hydroxy-2-[(4-methoxyphenyl)methyl]pyrrolidin-3-yl N-(1,3-thiazol-2-yl)carbamate Hydrochloride]: the IC50 is 10 to 20 µM in the test on MYC and under 10 µM in the test with ALK. For `COc1ccc(C[C@H]2NC[C@H](O)[C@H]2OC(=O)Nc2nc3ccccc3s2)cc1` [V187753, (2R,3S,4S)-4-hydroxy-2-[(4-methoxyphenyl)methyl]pyrrolidin-3-yl N-(1,3-benzothiazol-2-yl)carbamate; trifluoroacetic acid] the same measures were over 30 µM and over 30 µM. Regarding `COc1ccc(C[C@H]2NC[C@H](O)[C@H]2OC(=O)Nc2nc3ccccc3[nH]2)cc1` [V187754, (2R,3S,4S)-4-hydroxy-2-[(4-methoxyphenyl)methyl]pyrrolidin-3-yl N-(1H-1,3-benzodiazol-2-yl)carbamate], the half-maximal inhibitory concentration (IC50) with ALK is under 10 µM. As to `COc1ccc(C[C@H]2NC[C@H](O)[C@H]2OC(=O)Nc2ncc[nH]2)cc1` [V187755, (2R,3S,4S)-4-hydroxy-2-[(4-methoxyphenyl)methyl]pyrrolidin-3-yl N-(1H-imidazol-2-yl)carbamate], the half-inhibitory concentration (IC50) in the test on MYC, with CCND1 and in the test on ALK was under 10 µM throughout.

The record behind these values is patent publication US20250129021A1, “SMALL MOLECULE PROTEIN SYNTHESIS MODULATORS” (Interdict Bio, Inc., priority 2023, published 2025).
